The IC50 is the point on the concentration scale where inhibition reaches its midpoint.

The structures appear in SMILES notation.

For this test, the target named is T1, recombinant full-length human prolyl endopeptidase (PREP) (Homo sapiens, UniProt P48147).
T1 construct: To recombinant full-length human prolyl endopeptidase (PREP, R&D-Systems, 4308-SE); purchased R&D-Systems 4308-SE
T1 sequence (P48147 1-710): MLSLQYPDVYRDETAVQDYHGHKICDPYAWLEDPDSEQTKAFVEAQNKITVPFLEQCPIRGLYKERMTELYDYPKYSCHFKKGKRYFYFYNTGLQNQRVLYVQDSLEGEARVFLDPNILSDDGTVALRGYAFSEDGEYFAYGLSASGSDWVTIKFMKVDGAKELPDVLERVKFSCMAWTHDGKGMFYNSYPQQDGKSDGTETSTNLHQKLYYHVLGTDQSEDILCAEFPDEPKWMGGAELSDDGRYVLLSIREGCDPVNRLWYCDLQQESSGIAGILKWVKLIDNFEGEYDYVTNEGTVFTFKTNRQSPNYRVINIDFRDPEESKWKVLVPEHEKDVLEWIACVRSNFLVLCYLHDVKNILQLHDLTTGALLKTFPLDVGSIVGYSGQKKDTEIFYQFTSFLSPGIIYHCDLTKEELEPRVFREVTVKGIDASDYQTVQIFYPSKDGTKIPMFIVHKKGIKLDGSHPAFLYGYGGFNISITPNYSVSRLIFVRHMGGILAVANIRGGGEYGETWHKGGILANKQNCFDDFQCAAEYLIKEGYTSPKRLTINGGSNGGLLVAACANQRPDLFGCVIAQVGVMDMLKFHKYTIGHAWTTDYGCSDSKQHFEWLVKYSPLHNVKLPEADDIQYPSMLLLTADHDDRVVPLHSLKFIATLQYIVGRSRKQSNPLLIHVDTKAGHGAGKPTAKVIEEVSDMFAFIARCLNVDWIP
The experiment in a line: Biochemical human prolyl endopeptidase (PREP) assay with fluorescently labelled substrate. As to conditions: substrate Z-Gly-Pro-AMC 50 μM, 32° C., 60 min; some as mean values from multiple independent determinations. In a few lines:
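Initial rates of fluorescence increase from 50 μM Z-Gly-Pro-AMC cleavage (ex 360/em 465 nm, 60 min, 32° C) give percent PREP activity versus no-compound control, and IC50 is interpolated. Enzyme used at 0.4 nM (final, example) in Tris pH 7.5 with EDTA, GSH, BSA and Brij-35; compounds span 1 nM to 30 μM.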
Take `O=C(C1CCc2nn(Cc3ccc(Cl)nc3)c(=O)n21)N1CCC(F)(F)C1` (racemic) [Example 166, (5RS)-2-[(6-Chloropyridin-3-yl)methyl]-5-[(3,3-difluoropyrrolidin-1-yl)carbonyl]-2,5,6,7-tetrahydro-3H-pyrrolo[2,1-c][1,2,4]triazol-3-one]: the IC50 was found to be 22 nM. With `O=C(C1CCc2nn(Cc3ccc(C(F)(F)F)nc3)c(=O)n21)N1CCC(F)(F)C1` (racemic) [Example 167, (5RS)-5-[(3,3-Difluoropyrrolidin-1-yl)carbonyl]-2-{[6-(trifluoromethyl)pyridin-3-yl]methyl}-2,5,6,7-tetrahydro-3H-pyrrolo[2,1-c][1,2,4]triazol-3-one] the figure was 56.5 nM; with `O=C(C1CCc2nn(Cc3ccc(F)c(Cl)c3)c(=O)n21)N1CCC(F)(F)C1` (racemic) [Example 168, (5RS)-2-(3-Chloro-4-fluorobenzyl)-5-[(3,3-difluoropyrrolidin-1-yl)carbonyl]-2,5,6,7-tetrahydro-3H-pyrrolo[2,1-c][1,2,4]triazol-3-one], 4.1 nM; with `O=C(C1CCc2nn(Cc3ccc(Cl)nc3)c(=O)n21)N1CC(F)C1` (racemic) [Example 169, (5RS)-2-[(6-Chloropyridin-3-yl)methyl]-5-[(3-fluoroazetidin-1-yl)carbonyl]-2,5,6,7-tetrahydro-3H-pyrrolo[2,1-c][1,2,4]triazol-3-one], 31.5 nM. The result for `O=C(C1CCc2nn(Cc3ccc(C(F)(F)F)nc3)c(=O)n21)N1CC(F)C1` (racemic) [Example 170, (5RS)-5-[(3-Fluoroazetidin-1-yl)carbonyl]-2-{[6-(trifluoromethyl)pyridin-3-yl]methyl}-2,5,6,7-tetrahydro-3H-pyrrolo[2,1-c][1,2,4]triazol-3-one] reads 90 nM; that for `O=C(C1CCc2nn(Cc3ccc(F)c(Cl)c3)c(=O)n21)N1CC(F)C1` (racemic) [Example 171, (5RS)-2-(3-Chloro-4-fluorobenzyl)-5-[(3-fluoroazetidin-1-yl)carbonyl]-2,5,6,7-tetrahydro-3H-pyrrolo[2,1-c][1,2,4]triazol-3-one], 6.3 nM; that for `O=C(C1CCc2nn(Cc3ccc(Cl)nc3)c(=O)n21)N1C[C@@H](F)[C@@H](F)C1` (mixture of isomers) [Example 172, (5RS)-2-[(6-Chloropyridin-3-yl)methyl]-5-{[(3R,4S)-3,4-difluoropyrrolidin-1-yl]carbonyl}-2,5,6,7-tetrahydro-3H-pyrrolo[2,1-c][1,2,4]triazol-3-one], 6.3 nM. The result for `O=C(C1CCc2nn(Cc3ccc(C(F)(F)F)nc3)c(=O)n21)N1C[C@@H](F)[C@@H](F)C1` (mixture of isomers) [Example 173, (5RS)-5-{[(3R,4S)-3,4-Difluoropyrrolidin-1-yl]carbonyl}-2-{[6-(trifluoromethyl)pyridin-3-yl]methyl}-2,5,6,7-tetrahydro-3H-pyrrolo[2,1-c][1,2,4]triazol-3-one] reads 5.85 nM; that for `O=C(C1CCc2nn(Cc3ccc(F)c(Cl)c3)c(=O)n21)N1C[C@@H](F)[C@@H](F)C1` (mixture of isomers) [Example 174, (5RS)-2-(3-Chloro-4-fluorobenzyl)-5-{[(3R,4S)-3,4-difluoropyrrolidin-1-yl)carbonyl]-2,5,6,7-tetrahydro-3H-pyrrolo[2,1-c][1,2,4]triazol-3-one], 1.15 nM; that for `O=C(C1CCc2nn(Cc3ccnc(C(F)(F)F)c3F)c(=O)n21)N1C[C@@H](F)[C@@H](F)C1` (mixture of isomers) [Example 175, (5RS)-5-{[(3R,4S)-3,4-Difluoropyrrolidin-1-yl]carbonyl}-2-{[3-fluoro-2-(trifluoromethyl)pyridin-4-yl]methyl}-2,5,6,7-tetrahydro-3H-pyrrolo[2,1-c][1,2,4]triazol-3-one], 7 nM. For the compound `O=C(C1CCc2nn(Cc3ccnc(C(F)(F)F)c3F)c(=O)n21)N1CCC(F)(F)C1` (racemic) [Example 181, (5RS)-5-[(3,3-Difluoropyrrolidin-1-yl)carbonyl]-2-{[3-fluoro-2-(trifluoromethyl)pyridin-4-yl]methyl}-2,5,6,7-tetrahydro-3H-pyrrolo[2,1-c][1,2,4]triazol-3-one], the IC50 is 24.8 nM. The result for `O=C(C1CCc2nn(Cc3ccnc(C(F)(F)F)c3F)c(=O)n21)N1CC(F)C1` (racemic) [Example 182, (5RS)-5-[(3-Fluoroazetidin-1-yl)carbonyl]-2-{[3-fluoro-2-(trifluoromethyl)pyridin-4-yl]methyl}-2,5,6,7-tetrahydro-3H-pyrrolo[2,1-c][1,2,4]triazol-3-one] reads 37.5 nM; that for `O=C([C@@H]1CCCc2nn(Cc3ccnc(C(F)(F)F)c3F)c(=O)n21)N1CCC2CC21` (mixture of isomers) [Example 205, (5S)-5-[(1 RS,5SR)-2-Azabicyclo[3.1.0]hex-2-ylcarbonyl]-2-{[3-fluoro-2-(trifluoromethyl)pyridin-4-yl]methyl}-5,6,7,8-tetrahydro[1,2,4]triazolo[4,3-a]pyridin-3(2H)-one], 10 nM. The result for `CC1CCC(C(=O)N2CC[C@H](F)C2)n2c1nn(Cc1ccc(C(F)(F)F)nc1)c2=O` (mixture of isomers) [Example 220, (5RS,8RS)-5-{[(3S)-3-Fluoropyrrolidin-1-yl]carbonyl}-8-methyl-2-{[6-(trifluoromethyl)pyridin-3-yl]methyl}-5,6,7,8-tetrahydro[1,2,4]triazolo[4,3-a]pyridin-3(2H)-one] reads 1.5 nM; that for `Cc1ccc(Cn2nc3n(c2=O)C(C(=O)N2CCCC2)CCC3C)cc1` (racemic) [Example 223, (5RS,8RS)-8-Methyl-2-(4-methylbenzyl)-5-(pyrrolidin-1-ylcarbonyl)-5,6,7,8-tetrahydro[1,2,4]triazolo[4,3-a]pyridin-3(2H)-one], 0.415 nM. For the compound `Cc1ccc(Cn2nc3n(c2=O)C(C(=O)N2CCCC2)CC(C)C3)cc1` (racemic) [Example 224, (5RS,7RS)-7-Methyl-2-(4-methylbenzyl)-5-(pyrrolidin-1-ylcarbonyl)-5,6,7,8-tetrahydro[1,2,4]triazolo[4,3-a]pyridin-3(2H)-one], the IC50 worked out at 0.56 nM. With `O=C(C1CC(C(F)(F)F)Cc2nn(Cc3ccc(Cl)nc3)c(=O)n21)N1CCC(F)(F)C1` (racemic) [Example 230, (5RS,7RS)-2-[(6-Chloropyridin-3-yl)methyl]-5-[(3,3-difluoropyrrolidin-1-yl)carbonyl]-7-(trifluoromethyl)-5,6,7,8-tetrahydro[1,2,4]triazolo[4,3-a]pyridin-3(2H)-one] the figure was 2.3 nM. As to `O=C(C1CC(C(F)(F)F)Cc2nn(Cc3ccc(C(F)(F)F)nc3)c(=O)n21)N1CC(O)C1` (racemic) [Example 233, (5RS,7RS)-5-[(3-Hydroxyazetidin-1-yl)carbonyl]-7-(trifluoromethyl)-2-{[6-(trifluoromethyl)pyridin-3-yl]methyl}-5,6,7,8-tetrahydro[1,2,4]triazolo[4,3-a]pyridin-3(2H)-one], the IC50 is 203 nM.

Turning to `O=C(C1CC(C(F)(F)F)Cc2nn(Cc3ccc(C(F)(F)F)nc3)c(=O)n21)N1CC[C@H](F)C1` (mixture of isomers) [Example 235, (5RS,7RS)-5-{[(3S)-3-Fluoropyrrolidin-1-yl]carbonyl}-7-(trifluoromethyl)-2-{[6-(trifluoromethyl)pyridin-3-yl]methyl}-5,6,7,8-tetrahydro[1,2,4]triazolo[4,3-a]pyridin-3(2H)-one], the half-maximal inhibitory concentration (IC50) was determined as 6.8 nM.

These data come from patent publication US10722501B2 (BAYER AKTIENGESELLSCHAFT, priority 2016, dated 2020).
